Patent publication US11723365B2, “Method for controlling PPO resistant weeds” (BASF SE, priority 2016, dated 2023)

Legend:
Type in all cases: in vivo
[1] = test system: Amaranthus tamariscinus (common waterhemp, AMATA), sensitive biotype (w.4); assay: another greenhouse experiment, weed control, sensitive common waterhemp (w.4); details: use rate 4 g/ha; scale 0 to 100
Description: (§1) The culture containers used were plastic flowerpots containing loamy sand with approximately 3.0% of humus as the substrate. The seeds of the test plants were sown separately for each species and/or resistant biotype. For the pre-emergence treatment, the active ingredients, which had been suspended or emulsified in water, were applied directly after sowing by means of finely distributing nozzles. The containers were irrigated gently to promote germination and growth and subsequently covered with transparent plastic hoods until the plants had rooted. This cover caused uniform germination of the test plants, unless this had been impaired by the active ingredients. For the post-emergence treatment, the test plants were first grown to a height of 3 to 15 cm, depending on the plant habit, and only then treated with the active ingredients which had been suspended or emulsified in water. For this purpose, the test plants were either sown directly and grown in the same containers, or they were first grown separately as seedlings and transplanted into the test containers a few days prior to treatment. Depending on the species, the plants were kept at 10-25° C. or 20-35° C., respectively. The test period extended over 2 to 4 weeks. During this time, the plants were tended, and their response to the individual treatments was evaluated. The evaluation was carried out by using a scale from 0 to 100. […]

[2] = test system: Amaranthus tamariscinus (common waterhemp, AMATA), PPO resistant biotype 3 containing the ΔG210 mutation (w.5); assay: another greenhouse experiment, weed control, PPO resistant biotype 3 (w.5)
Description: as §1

[3] = test system: Amaranthus tamariscinus (common waterhemp, AMATA), PPO resistant biotype 4 containing the ΔG210 mutation (w.6); assay: another greenhouse experiment, weed control, PPO resistant biotype 4 (w.6); details: use rate 4 g/ha; scale 0 to 100
Description: as §1

[4] = test system: Amaranthus tamariscinus (common waterhemp, AMATA), PPO resistant biotype 2 (w.3); assay: greenhouse experiment, weed control, PPO resistant biotype 2 (w.3); details: scale 0 to 100
Description: (§2) The culture containers used were plastic flowerpots containing loamy sand with approximately 3.0% of humus as the substrate. The seeds of the test plants were sown separately for each species and/or resistant biotype. For the pre-emergence treatment, the active ingredients, which had been suspended or emulsified in water, were applied directly after sowing by means of finely distributing nozzles. The containers were irrigated gently to promote germination and growth and subsequently covered with transparent plastic hoods until the plants had rooted. This cover caused uniform germination of the test plants, unless this had been impaired by the active ingredients. For the post-emergence treatment, the test plants were first grown to a height of 3 to 15 cm, depending on the plant habit, and only then treated with the active ingredients which had been suspended or emulsified in water. For this purpose, the test plants were either sown directly and grown in the same containers, or they were first grown separately as seedlings and transplanted into the test containers a few days prior to treatment. Depending on the species, the plants were kept at 10-25° C. or 20-35° C., respectively. The test period extended over 2 to 4 weeks. During this time, the plants were tended, and their response to the individual treatments was evaluated. The evaluation was carried out by using a scale from 0 to 100. 100 means no emergence of the plants or complete destruction of at least the above-ground parts, and 0 means no damage, or normal course of growth.
(§3) The plants used in a first greenhouse experiment were of the following species and biotype: […]

[5] = test system: Amaranthus tamariscinus (common waterhemp, AMATA), PPO resistant biotype 1 (w.2); assay: greenhouse experiment, weed control, PPO resistant biotype 1 (w.2); details: for activity on sensitive and resistant weeds (in words): summary of table 2: sensitive (w.1) and resistant weeds (w.2, w.3); for Weed control (%) w.2: scale 0 to 100
Description: as §2, §3

[6] = test system: Amaranthus tamariscinus (common waterhemp, AMATA), sensitive biotype (w.1); assay: greenhouse experiment, weed control, sensitive common waterhemp (w.1)
Description: as §2, §3

[7] = use rate 2 g/ha, scale 0 to 100
[8] = use rate 4 g/ha, scale 0 to 100 (100 = complete destruction, 0 = no damage)

Structure (SMILES)	Weed control (%) w.4 [1] [%]	activity on sensitive and resistant weeds (in words) ([2]; summary of table 3: sensitive (w.4) and resistant weeds (w.5, w.6) containing the ΔG210 mutation)	Weed control (%) w.5 ([2]; use rate 4 g/ha, scale 0 to 100) [%]	Weed control (%) w.6 [3] [%]	Weed control (%) w.3 ([4]; use rate 2 g/ha) [%]	Weed control (%) w.3 ([4]; use rate 4 g/ha) [%]	activity on sensitive and resistant weeds (in words) [5]	Weed control (%) w.2 ([5]; use rate 2 g/ha) [%]	Weed control (%) w.2 ([5]; use rate 4 g/ha) [%]	Weed control (%) w.1 [6, 7] [%]	Weed control (%) w.1 [6, 8] [%]
COC(=O)CCNC(=O)C(C)Sc1cc(-n2c(=O)cc(C(F)(F)F)n(C)c2=O)c(F)cc1Cl (stereo not drawn) [(I).1, tiafenacil]	92	very good activity on both sensitive (w.4) and resistant weeds (w.5, w.6)	95	88	78	85	very good activity on both sensitive (w.1) and resistant weeds (w.2, w.3)	83	91	90	99
C#CCOc1cc(-n2nc3n(c2=O)CCCC3)c(Cl)cc1Cl [azafenidin, reference compound]	–	–	–	–	70	72	much weaker control of resistant in comparison to sensitive biotypes	67	73	95	98
